The target in the assay is T1, Ns H-NOX (Nostoc sp. PCC 7120 = FACHB-418, UniProt A0ACD6B960, C139A).
T1 construct: gene alr2278
Kind of assay: 1H-15N HSQC NMR titration (chemical shift perturbation). Conditions: 298 K; heme-bound, no NO; surface site next to heme; one KD per perturbed residue. In kind it is binding.

T1 sequence (A0ACD6B960 entry or part of it C139A): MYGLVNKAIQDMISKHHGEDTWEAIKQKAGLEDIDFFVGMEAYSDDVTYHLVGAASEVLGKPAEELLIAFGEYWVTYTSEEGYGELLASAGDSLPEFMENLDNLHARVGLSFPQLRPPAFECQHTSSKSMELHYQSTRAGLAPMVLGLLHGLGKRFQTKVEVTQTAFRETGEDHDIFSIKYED

For the compound `Nc1nc(-c2nn(Cc3ccccc3F)c3ncccc23)ncc1C1CC1` [BAY 41-2272], the KD entry is listed as “yielding the binding constant (K D ) for each residue”.

The values above are taken from PMC9247194, “Mapping of the sGC Stimulator BAY 41-2272 Binding Site on H-NOX Domain and Its Regulation by the Redox State of the Heme” (Frontiers in Cell and Developmental Biology, 2022).
